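Briefly, cells in 96-well plates were exposed to five compound concentrations for 48 h, and endpoints were estimated by linear interpolation. Here, GI50 denotes the concentration required for 50% inhibition of growth. The concentration for full growth arrest is given as TGI.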
Experiments:
Assay in all cases: inhibition of tumour cell growth, NCI panel, 48 h
OVCAR-4 ovarian = system: OVCAR-4 ovarian
SK-MEL-2 melanoma = system: SK-MEL-2 melanoma
A549 NSCLC = system: A549 NSCLC
UACC-257 melanoma = system: UACC-257 melanoma
NCI-H226 lung = system: NCI-H226 lung
SNB-75 CNS = system: SNB-75 CNS
MOLT-4 leukemia = system: MOLT-4 leukemia
HCT-116 colon = system: HCT-116 colon
PC-3 prostate = system: PC-3 prostate
HT29 colon = system: HT29 colon

Structure (SMILES)	TGI (OVCAR-4 ovarian) [µM]	TGI (SK-MEL-2 melanoma) [µM]	TGI (A549 NSCLC) [µM]	TGI (UACC-257 melanoma) [µM]	TGI (NCI-H226 lung) [µM]	TGI (SNB-75 CNS) [µM]	TGI (MOLT-4 leukemia) [µM]	TGI (HCT-116 colon) [µM]	TGI (PC-3 prostate) [µM]	TGI (HT29 colon) [µM]	GI50 (OVCAR-4 ovarian) [µM]	GI50 (SK-MEL-2 melanoma) [µM]	GI50 (A549 NSCLC) [µM]	GI50 (UACC-257 melanoma) [µM]	GI50 (NCI-H226 lung) [µM]	GI50 (SNB-75 CNS) [µM]	GI50 (MOLT-4 leukemia) [µM]	GI50 (HCT-116 colon) [µM]	GI50 (PC-3 prostate) [µM]
COc1ccc(N=C2C(=S)N(c3ccc(OC)cc3)/C(=N/S(=O)(=O)c3ccccc3)N2c2ccccc2)cc1	22.4	25.5	> 73.1	26.6	38.7	35.1	> 100	17.7	11.1	> 64.4									
CCCCN(CCCC)C(=C(C(Cl)=C(Cl)Cl)[N+](=O)[O-])N(CCCC)CCCC	> 100	> 100	> 100	> 100	> 100	> 100		> 100	> 100										
OC1(c2ccc(Cl)cc2)c2ccc(CN3CCCC3)cc2C2=NCCN21 (stereo unspecified)	25.1	34.2	33.3	25.1		18.5	41.9	27.1	27.2	26.7									
NC(=O)c1ncn2c1NC(=O)CC2	> 100	> 100	> 100	> 100	> 100	> 100	> 100	> 100		> 100									
COC(=O)C1=C(O)C(C(=O)OC)[C@@]2(O)[C@@H](C(=O)OC)[C@H](C)[C@@H](C)[C@@H]1[C@@H]2C(=O)OC (stereo partly specified)		> 100		> 100	> 100	> 100	> 100	> 100		> 100									
CCOC(=O)[C@@H]1ON2O[C@@H](OC3CCCC3(c3ccccc3)c3ccccc3)C[C@H]3OC(=O)[C@@H]1C32 (stereo partly specified)			57.4	50.6	> 100	> 100	> 100	> 100		43.1									
COc1cc2c(cc1OC)C13CC[N+]4(C)CC5=CCOC6CC(=O)N2C1C6C5CC34[O-] (stereo unspecified)	> 100		> 100	> 100	> 100	> 100	> 100	> 100	> 100										
Cc1cc2nc(-c3cc(C(C)(C)C)c(O)c(C(C)(C)C)c3)[nH]c2cc1C	> 23.3	> 100	26.3	> 100	> 100	> 100	27.1		> 100	> 100									
O=c1n(Cc2ccccc2)c(=O)n2c(=O)n(Cc3ccccc3)c(=O)n12	> 100			> 100	> 100	> 100		> 100		> 100									
COc1ccc(-c2csc(NC(=O)CSc3nc(C)c(-c4ccccc4)n3Nc3ccccc3)n2)cc1	> 100	> 100	> 100	> 100	> 100	> 100	> 100	> 100	> 100		8.24	9.52	4.87	> 100	> 100	12.8	3.78	5.32	5.16
COc1cc(CNc2nc3cc(C(F)(F)F)ccc3nc2-c2ccccc2)cc(OC)c1OC			> 100	> 100	> 100	44	> 100	> 100		> 100									
Nc1nc(Nc2ccc(Cl)cc2)sc1C(=O)c1cccs1	> 100	> 100	> 100	> 100	75.3		> 100	> 100	> 100	> 100									
C[C@]12CC[C@H](O)C=C1CC[C@@H]1[C@@H]2CC[C@]2(C)C(c3ccc(=O)oc3)CC[C@]12O (stereo partly specified)	0.0356	0.0647	0.0172	0.0777	0.154	0.0736	< 0.0125	0.0674		0.293									
Cc1cn2c(C)csc2c1P(=O)(OC(C)C)OC(C)C	> 100	> 100	> 100	> 100		> 100	> 100	> 100	> 100	> 100									
CCCCC/C(C=O)=C\c1ccccc1	> 100	> 100		> 100	> 100	> 100	> 100	> 100	> 100	> 100									
O=C(CCc1cccc(O)c1)NCCCNC(=O)CCc1cccc(O)c1	> 100	> 100	> 100	> 100			> 100	> 100	> 100	> 100									
Cc1c(C#N)c(N)n(C2OCC(O)C(O)C2O)c(=S)c1C#N (stereo unspecified)		> 100	> 100	> 100	> 100	> 100	> 100		> 100	> 100									
CCCCC#CS(=O)(=O)C(F)(F)F	98.9	> 100	> 100	> 100	> 100	98.3	> 100	> 100		> 100									
C=C(C)[C@@]1(O[Si](C)(C)C)CCCC[C@@H]1CC(Sc1ccccc1)Sc1ccccc1	26.2	31	23.1	29.7	32.2	25.7	25.7		27.4	34.8									
CC1(C)[C@@H](Cn2cnc3c(Cl)nc(N)nc32)CC[C@@]1(C)CO	> 100	35.1	> 100	79.2	91.7	> 100		> 100	> 100										
C[C@]1(S(=O)(=O)c2ccccc2)C[C@H]2N(Cc3ccccc3)[C@@H]1CCC21OCCO1	> 100	> 100	> 100	69.3		> 100	> 100	> 100	> 100	> 100									
c1csc(-c2c3ccc(=[N+]4CCCCC4)cc-3oc3cc(N4CCCCC4)ccc23)c1				0.321		0.508	0.473		0.177					0.0982		0.123	0.0515		0.0373
CC(C)(C)OC(=O)n1c(-c2ccccc2F)cc(=O)c2cc3c(cc21)OCO3	> 100	> 100	> 39.7			> 100	10	> 31.8	> 100	0.368									

Source: PubChem BioAssay (NCI)
